What was measured:
[1] = test system: Fgfr3^N534K/+ mice (hypochondroplasia mouse model); assay: Tail suspension test (TST), HCH mouse model; assay type: in vivo; conditions: bottle treatment 3 mg/L, 4 weeks; adult mice
Protocol: This test is based on the observation that rodents, after initial escape-oriented movements, develop an immobile posture when placed in an inescapable stressful situation. Each mouse is hung in an uncontrollable fashion by their tail at above 25 cm from the floor. Mice were tested for 5 min, and the time spent immobile was quantified. To confirm the direct implication of brain FGFR3 in cognitive disorders observed in Fgfr3^N534K/+ mice, we decided to treat mice with (−)-epicatechin bottle treatment. The animals were treated with bottle (−)-epicatechin (3 mg/L) during 4 weeks before behavioural tests.

[2] = test system: Fgfr3^N534K/+ mice (hypochondroplasia mouse model); assay: Novel object location (NOL), spatial memory, HCH mouse model; assay type: in vivo
Protocol: 4 months old Fgfr3^N534K/+ mice and Fgfr3^A385E/+ mice received daily subcutaneous administration of (−)-epicatechin (0.15 mg/kg) or vehicle (HcL 3.5 mM, DMSO 2%) for at least seven days. For habituation and testing NOR and NOL, injection was performed 1 hour before testing phase. Timing of injection for the different tests: NOL at 7 days, NOR at 14 days, TST: at 22 days and FST at 24 days. For the novel object location task, all procedures were identical to the novel object recognition task except that during the testing phase, rather than presenting a novel object, mice encountered both familiar objects, with one object located in a different place in the arena. The time and frequency of exploration of the novel/relocated object is measured as an index of memory. Behavior was scored on videos by two observers blind to treatment and the total exploration time of the objects was quantified in the testing phases. To confirm the direct implication of brain FGFR3 in cognitive disorders observed in Fgfr3^N534K/+ mice, we decided to treat mice with (−)-epicatechin bottle treatment. The animals were treated with bottle (−)-epicatechin (3 mg/L) during 4 weeks before behavioural tests.

[3] = test system: Fgfr3^N534K/+ mice (hypochondroplasia mouse model); assay: Forced swim test (FST), HCH mouse model; assay type: in vivo; conditions: adult mice
Protocol: (§1) 4 months old Fgfr3^N534K/+ mice and Fgfr3^A385E/+ mice received daily subcutaneous administration of (−)-epicatechin (0.15 mg/kg) or vehicle (HcL 3.5 mM, DMSO 2%) for at least seven days. For habituation and testing NOR and NOL, injection was performed 1 hour before testing phase. Timing of injection for the different tests: NOL at 7 days, NOR at 14 days, TST: at 22 days and FST at 24 days. This test is based on a similar observation than the TST. Each mouse is placed in a cylinder (height: 25 cm and diameter: 10 cm) filled with water (23-25° C.). Mice were tested for 5 min, and the time spent immobile (behavioral despair) was quantified. To confirm the direct implication of brain FGFR3 in cognitive disorders observed in Fgfr3^N534K/+ mice, we decided to treat mice with (−)-epicatechin bottle treatment. The animals were treated with bottle (−)-epicatechin (3 mg/L) during 4 weeks before behavioural tests.

[4] = test system: Fgfr3^N534K/+ mice (hypochondroplasia mouse model); assay: Contextual fear conditioning (CFC), associative memory, HCH mouse model; assay type: in vivo; conditions: bottle treatment 3 mg/L, 4 weeks; adult mice
Description: We performed on 4-month-old male mice a test related to the hippocampus associative memory (one-trial contextual fear conditioning, CFC). This test allows us to understand the ability of mice to remember an event associated with memory integration. During this behavorial test, we assess the freezing time of the mice, the mutant mice baseline was similar to control littermates during the training phase (p=0,2303). […] To confirm the direct implication of brain FGFR3 in cognitive disorders observed in Fgfr3^N534K/+ mice, we decided to treat mice with (−)-epicatechin bottle treatment. The animals were treated with bottle (−)-epicatechin (3 mg/L) during 4 weeks before behavioural tests.

[5] = test system: Fgfr3^N534K/+ mice (hypochondroplasia mouse model); assay: Bar beam, locomotion and fine coordination, HCH mouse model; assay type: in vivo; conditions: bottle treatment 3 mg/L, 4 weeks; adult mice
Description: The bar beam is a test to measure fine motor coordination and balance in mice by assessing if the mice stay upright and walk across an elevated narrow beam to a safe platform. This test takes place over 2 consecutive days and we measured the time it takes for the mouse to traverse the beam and the maximum distance done To confirm the direct implication of brain FGFR3 in cognitive disorders observed in Fgfr3^N534K/+ mice, we decided to treat mice with (−)-epicatechin bottle treatment. The animals were treated with bottle (−)-epicatechin (3 mg/L) during 4 weeks before behavioural tests.

FGFR3 = FGFR3 (Homo sapiens, UniProt P22607); conditions: reason for selection; no test described; cited from earlier work
[6] = test system: Fgfr3^Y367C/+ mouse model; conditions: cited from earlier work
[7] = test system: Fgfr3^N534K/+ mice (hypochondroplasia mouse model); assay: Novel object recognition (NOR), episodic memory, HCH mouse model; assay type: in vivo
Protocol: (§2) 4 months old Fgfr3^N534K/+ mice and Fgfr3^A385E/+ mice received daily subcutaneous administration of (−)-epicatechin (0.15 mg/kg) or vehicle (HcL 3.5 mM, DMSO 2%) for at least seven days. For habituation and testing NOR and NOL, injection was performed 1 hour before testing phase. Timing of injection for the different tests: NOL at 7 days, NOR at 14 days, TST: at 22 days and FST at 24 days.
(§3) We used a modified version of the NOR task as described in Glatigny et al., 2019. Mice were transported a short distance from the holding mouse facility to the testing room in their home cages and left undisturbed for at least one hour before the beginning of the test. The testing room was lit with two 60-W light bulbs and behavior sessions were recorded with a camera above the testing arena (grey plastic box (60×40×32 cm)). […] The objects elicited equal levels of exploration as determined in pilot experiments and training phase. […]
(§4) The following behaviors were considered as exploration of the objects: sniffing, licking, or touching the object with the nose or with the front legs or directing the nose to the object at a distance≤1 cm. Investigation was not scored if the mouse was on top of the object or completely immobile. The discrimination index was calculated as (time spent exploring the new object-time spent exploring the familiar object)/(total time spent exploring both objects). […]

[8] = test system: Fgfr3^A385E/+ mice (CAN mouse model); assay: Forced swim test (FST), CAN mouse model; assay type: in vivo; conditions: subcutaneous injections for 7 days at least; 4-month-old mice
Protocol: as §1, with “quantified.” for “quantified. To confirm the direct implication of brain FGFR3 in cognitive disorders observed in Fgfr3^N534K/+ mice, we decided to treat mice with (−)-epicatechin bottle treatment. The animals were treated with bottle (−)-epicatechin (3 mg/L) during 4 weeks before behavioural tests.”

[9] = test system: Fgfr3^N534K/+ mice (hypochondroplasia mouse model); assay: Morris water maze (MWM), spatial memory, HCH mouse model; assay type: in vivo; conditions: bottle treatment 3 mg/L, 4 weeks; adult mice
Protocol: The Morris water maze (MWM) is a test of spatial learning for mice that relies on distal cues to navigate from a start location to locate a submerged escape platform. Spatial learning is assessed across repeated trials during 8 days and reference memory is determined by location of the platform area. To confirm the direct implication of brain FGFR3 in cognitive disorders observed in Fgfr3^N534K/+ mice, we decided to treat mice with (−)-epicatechin bottle treatment. The animals were treated with bottle (−)-epicatechin (3 mg/L) during 4 weeks before behavioural tests.

[10] = test system: Fgfr3^A385E/+ mice (CAN mouse model); assay: Novel object recognition (NOR), CAN mouse model; assay type: in vivo; conditions: subcutaneous injections for 7 days at least; 4-month-old mice
Protocol: as §2, §3, §4

[11] = bottle treatment 3 mg/L, 4 weeks, adult mice
[12] = subcutaneous injection, in vivo and/or in vitro

Chain of FGFR3 (P22607 23-806): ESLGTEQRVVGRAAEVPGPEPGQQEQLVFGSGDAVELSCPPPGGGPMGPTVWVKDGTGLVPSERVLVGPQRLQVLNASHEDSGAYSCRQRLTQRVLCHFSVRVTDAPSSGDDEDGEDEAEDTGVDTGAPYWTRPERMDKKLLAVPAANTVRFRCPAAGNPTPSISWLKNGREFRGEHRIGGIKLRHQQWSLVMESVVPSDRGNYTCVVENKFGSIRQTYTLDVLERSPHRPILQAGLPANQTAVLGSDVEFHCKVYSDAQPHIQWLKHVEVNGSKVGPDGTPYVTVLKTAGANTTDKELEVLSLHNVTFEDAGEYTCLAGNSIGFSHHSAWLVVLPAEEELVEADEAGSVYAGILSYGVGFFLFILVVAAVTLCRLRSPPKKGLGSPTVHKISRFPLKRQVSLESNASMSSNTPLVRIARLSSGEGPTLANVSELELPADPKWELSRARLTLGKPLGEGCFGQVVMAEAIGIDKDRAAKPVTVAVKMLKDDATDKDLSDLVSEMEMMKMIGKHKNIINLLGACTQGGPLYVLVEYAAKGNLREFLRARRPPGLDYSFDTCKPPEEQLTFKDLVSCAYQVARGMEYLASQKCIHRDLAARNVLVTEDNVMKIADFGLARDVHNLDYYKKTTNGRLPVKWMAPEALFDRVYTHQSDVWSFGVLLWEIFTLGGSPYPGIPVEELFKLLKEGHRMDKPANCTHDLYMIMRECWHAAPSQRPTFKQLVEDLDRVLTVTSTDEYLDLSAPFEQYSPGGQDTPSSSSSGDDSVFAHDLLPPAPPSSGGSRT

In the case of `Oc1cc(O)c2c(c1)O[C@H](c1ccc(O)c(O)c1)[C@H](O)C2` [(−)-epicatechin, (2R,3R)-2-(3,4-dihydroxyphenyl)-3,4-dihydro-2H-chromene-3,5,7-triol], the “antidepressant effect (TST)” value [1] is reported as “rescue”, the “spatial memory deficits (NOL)” value [2, 11] is reported as “rescue” and the “spatial memory deficits (NOL), exploration of relocated object” value ([2]; daily subcutaneous 0.15 mg/kg, at least seven days, 4 months old male mice, vs control littermates p=0,9538) is reported as “sufficient to restore”. For the same molecule, the “antidepressant effect (FST)” value ([3]; bottle treatment 3 mg/L, 4 weeks) was “rescue”, the antidepressant effect ([3]; subcutaneous injection, FST and TST of FIG. 1) was “rescue” and the “associative memory deficits (CFC)” value [4] was “rescue”. For the same molecule, the “locomotion and coordination fine (Bar beam)” value [5] was “rescue”, the “binding specificity for FGFR3” value (FGFR3) was “highest binding specificity” and the “efficacy in skeletal anomalies” value ([6]; FGFR3 related Achondroplasia mouse model (Martin et al 2021)) was “showed the efficacy”. For the same molecule, the “functional activation of the FGFR3 downstream signalling pathway” value [6, 12] was “sufficient to abolish or eliminating”, the “impairment of the ciliogenesis” value [6, 12] was “restore” and the “episodic memory deficits (NOR)” value [7, 11] was “rescue”. For the same molecule, the “episodic memory deficits (NOR), exploration of novel object” value ([7]; daily subcutaneous 0.15 mg/kg, at least seven days, 4 months old male mice, vs control littermates p=0,8697) was “sufficient to restore”, the “coping strategy to an inescapable stress (FST)” value [8] was “reestablished the coping strategy” and the “spatial memory deficits (Morrys Water Maze)” value [9] was “rescue”. For the same molecule, the “memory deficits in the NOR paradigm” value [10] was “reversed the memory deficits”.

— patent US20250041262A1, “COMPOSITIONS FOR THE TREATMENT OF FGFR3-RELATED COGNITIVE DEFICITS WITH A CATECHIN” (INSTITUT NATIONAL DE LA SANTÉ ET DE LA RECHERCHE MÉDICALE, priority 2021, published 2025)
